# Source: patent US9006232B2, “Pyrimidone derivatives” (Mitsubishi Tanabe Pharma Corporation, priority 2009, dated 2015)
# Counter-ions that a name gives are not always drawn.
# Target: bovine cerebral TPK1 (Bos taurus, UniProt A0A059UE90)
# Test: Inhibitory activity against P-GS1 phosphorylation by bovine cerebral TPK1
# Assay type: biochemical
# Conditions: P-GS1 phosphorylation, 41.7 μM [γ-32P] ATP, 25° C., 2 hours; read-out: IC50
# Protocol: Inhibitory Activity of the Medicament of the Present Invention Against P-GS1 Phosphorylation by Bovine Cerebral TPK1 […] The phosphorylation was started by adding ATP, and the reaction was conducted at 25° C. for 2 hours, and then stopped by adding 21% perchloric acid on ice cooling. The reaction mixture was centrifuged at 12,000 rpm for 5 minutes and adsorbed on P81 paper (Whatmann), and then the paper was washed four times with 75 mM phosphoric acid, three times with water and once with acetone. The paper was dried, and the residual radioactivity was measured using a liquid scintillation counter.
# Sequence of bovine cerebral TPK1 (A0A059UE90 1-419): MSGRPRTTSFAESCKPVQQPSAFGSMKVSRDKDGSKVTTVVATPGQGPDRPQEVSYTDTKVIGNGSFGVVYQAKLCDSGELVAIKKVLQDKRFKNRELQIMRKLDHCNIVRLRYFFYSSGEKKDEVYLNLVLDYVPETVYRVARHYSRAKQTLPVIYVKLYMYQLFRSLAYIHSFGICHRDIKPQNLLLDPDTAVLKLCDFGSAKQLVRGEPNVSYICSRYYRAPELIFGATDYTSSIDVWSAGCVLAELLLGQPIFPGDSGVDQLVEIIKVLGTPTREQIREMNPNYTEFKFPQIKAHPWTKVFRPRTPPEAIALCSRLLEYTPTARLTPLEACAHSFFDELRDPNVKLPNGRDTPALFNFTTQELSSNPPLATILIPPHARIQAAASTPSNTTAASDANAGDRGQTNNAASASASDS
row,Structure (SMILES),IC50 [nM]
1,"Cn1c(OC[C@H]2CCN(c3ccsc3)C2)nc(-c2ccncn2)cc1=O [Compound No. 2.207, 1-Methyl-2-[(3S)-1-(thiophen-3-yl)pyrrolidin-3-ylmethoxy]-1H-[4,4]′bipyrimidinyl-6-one]",307
2,"CC1CCCCC1Oc1nc(-c2ccncn2)cc(=O)n1C (stereo not drawn) [Compound No. 1.801, 1-Methyl-2-(2-methyl-cyclohexyloxy)-1H-[4,4′] bipyrimidinyl-6-one]",58.1
3,"Cn1c(OC2CCCN(c3ccc(C#N)cc3)CC2)nc(-c2ccncn2)cc1=O (stereo not drawn) [Compound No. 1.701, 4-[4-(1-Methyl-6-oxo-1,6-dihydro-[4,4′]bipyrimidinyl-2-yloxy)azepan-1-yl]benzonitrile]",30.3
4,"Cn1c(OC[C@@H]2CCN(c3ccccc3)C2)nc(-c2ccncc2F)cc1=O [Compound No. 2.211, 6-(3-Fluoro-pyridin-4-yl)-3-methyl-2-[(3R)-1-phenyl-pyrrolidin-3-ylmethoxy]-3H-pyrimidin-4-one]",658
5,"Cn1c(OC2CCCN(c3ccccc3)C2)nc(-c2ccncn2)cc1=O (stereo not drawn) [Compound No. 1.101, 1-Methyl-2-(1-phenyl-piperidin-3-yloxy)-1H-[4,4′]bipyrimidinyl-6-one]",9.4
6,"CN(C)Cc1ccc(CCOc2nc(-c3ccncc3)cc(=O)n2C)cc1 [Compound No. 2.402, 2-[2-(4-Dimethylaminomethyl-phenyl)ethoxy]-3-methyl-6-pyridin-4-yl-3H-pyrimidin-4-one dihydrochloride]",150
7,"Cn1c(OC2CCN(c3ccccc3CN3CCOCC3)CC2)nc(-c2ccncn2)cc1=O [Compound No. 1.301, 1-Methyl-2-[1-(2-morpholin-4-ylmethyl-phenyl)piperidin-4-yloxy]-1H-[4,4′]bipyrimidinyl-6-one]",61.1
8,"Cn1c(OCC2(c3ccccc3)OCCO2)nc(-c2ccncn2)cc1=O [Compound No. 2.501, 1-Methyl-2-(2-phenyl-[1,3]dioxolan-2-ylmethoxy)-1H-[4,4′] bipyrimidinyl-6-one]",386
9,"CN1CCN(Cc2ccc([C@H]3CC[C@@H](Oc4nc(-c5ccncn5)cc(=O)n4C)CC3)cc2)CC1 [Compound No. 1.904, 1-Methyl-2-{cis-4-[4-(4-methyl-piperazin-1-ylmethyl)phenyl]cyclohexyloxy}-1H-[4,4′] bipyrimidinyl-6-one]",30.3
10,"Cn1c(OCCc2ccc(CN3CCCCC3)cc2)nc(-c2ccncc2)cc1=O [Compound No. 2.401, 3-Methyl-2-[2-(4-piperidin-1-ylmethyl-phenyl)ethoxy]-6-pyridin-4-yl-3H-pyrimidin-4-one dihydrochioride]",110
11,"Cn1c(OC[C@@H]2CCN(c3ccsc3)C2)nc(-c2ccncc2F)cc1=O [Compound No. 2.208, 6-(3-Fluoro-pyridin-4-yl)-3-methyl-2-[(3R)-1-(thiophen-3-yl)pyrrolidin-3-ylmethoxy]-3H-pyrimidin-4-one]",108
12,"CCCCCCc1ccc(Oc2nc(-c3ccncn3)cc(=O)n2C)cc1 [Compound No. 2.001, 2-(4-Hexylphenoxy)-1-methyl-1H[4,4′]bipyrimidinyl-6one]",429

# Next, values leading:
row,IC50 [nM],Structure (SMILES)
1,98.2,"COc1ccc(N2CCCC(Oc3nc(-c4ccncn4)cc(=O)n3C)C2)cc1 (stereo not drawn) [1.107, 2-[1-(4-Methoxy-phenyl)piperidin-3-yloxy]-1-methyl-1H-[4,4′]bipyrimidinyl-6-one]"
2,160,"Cn1c(OCCc2ccccc2)nc(-c2ccncn2)cc1=O [2.302, 1-Methyl-2-phenethyloxy-1H-[4,4′]bipyrimidinyl-6-one]"
3,154,"CC(=O)N1Cc2ccc(N3CCC(Oc4nc(-c5ccncn5)cc(=O)n4C)CC3)cc2C1 [1.230, 2-[1-(2-Acetyl-2,3-dihydro-1H-isoindol-5-yl)piperidin-4-yloxy]-1-methyl-1H-[4,4′]bipyrimidinyl-6-one]"
4,99,"Cn1c(OCCNc2ccccc2)nc(-c2ccncc2)cc1=O [1.807, 3-Methyl-2-(2-phenylamino-ethoxy)-6-pyridin-4-yl-3H-pyrimidin-4-one]"
5,15.6,"Cn1c(OCC2CCN(c3ccc(CN4CCCCC4)cc3)CC2)nc(-c2ccncc2F)cc1=O [1.234, 6-(3-Fluoro-pyridin-4-yl)-3-methyl-2-[1-(4-piperidin-1-ylmethyl-phenyl)piperidin-4-ylmethoxy]-3H-pyrimidin-4-one]"
6,31.5,"Cn1c(OC2CCN(c3cccc(CN4CCOCC4)c3)CC2)nc(-c2ccncn2)cc1=O [1.221, 1-Methyl-2-[1-(3-morpholin-4-ylmethyl-phenyl)piperidin-4-yloxy]-1H-[4,4′]bipyrimidinyl-6-one]"
7,58.6,"CN(C)Cc1ccccc1N1CCC(Oc2nc(-c3ccncn3)cc(=O)n2C)CC1 [1.305, 2-[1-(2-Dimethylaminomethyl-phenyl)piperidin-4-yloxy]-1-methyl-1H-[4,4′]bipyrimidinyl-6-one]"
8,16,"Cn1c(OC2CCN(c3ccc4c(c3)CN(Cc3ccccc3)C4)CC2)nc(-c2ccncn2)cc1=O [1.227, 2-[1-(2-Benzyl-2,3-dihydro-1H-isoindol-5-yl)piperidin-4-yloxy]-1-methyl-1H-[4,4′]bipyrimidinyl-6-one]"
9,67,"CCN(CCOc1nc(-c2ccncc2F)cc(=O)n1C)c1cccc(C)c1 [1.808, 2-[2-(Ethyl-m-tolyl-amino)-ethoxy]-6-(3-fluoro-pyridin-4-yl)-3-methyl-3H-pyrimidin-4-one]"
10,16.1,"Cn1c(OC2CCN(c3ccc(CN4CCCCC4)cc3)CC2)nc(-c2ccncn2)cc1=O [1.214, 1-Methyl-2-[1-(4-piperidin-1-ylmethyl-phenyl)piperidin-4-yloxy]-1H-[4,4′]bipyrimidinyl-6-one]"
11,10.9,"Cn1c(OC2CCN(c3ccc(CN4CCCCC4)cc3)CC2)nc(-c2ccncc2F)cc1=O [1.216, 6-(3-Fluoro-pyridin-4-yl)-3-methyl-2-[1-(4-piperidin-1-ylmethyl-phenyl)piperidin-4-yloxy]-3H-pyrimidin-4-one]"
12,51.2,"Cn1c(OC2CCN(c3ccccc3CN3CCCCC3)CC2)nc(-c2ccncn2)cc1=O [1.303, 1-Methyl-2-[1-(2-piperidin-1-ylmethyl-phenyl)piperidin-4-yloxy]-1H-[4,4′]bipyrimidinyl-6-one]"
13,22.6,"Cn1c(OC2CCCCC2)nc(-c2ccncn2)cc1=O [1.802, 2-Cyclohexyloxy-1-methyl-1H-[4,4′]bipyrimidinyl-6-one]"
14,43.1,"Cn1c(OC[C@H]2CCCN2c2ccc(F)cc2)nc(-c2ccncc2F)cc1=O [2.203, 2-[(2R)-1-(4-Fluoro-phenyl)pyrrolidin-2-ylmethoxy]-6-(3-fluoro-pyridin-4-yl)-3-methyl-3H-pyrimidin-4-one]"
15,394,"CN1CCC(N2CCC(Oc3nc(-c4ccncn4)cc(=O)n3C)CC2)CC1 [1.505, 1-Methyl-2-(1′-methyl-[1,4′]bipiperidinyl-4-yloxy)-1H-[4,4′] bipyrimidinyl-6-one]"
16,27.4,"CC(=O)N1CCN(c2ccc(N3CCC(Oc4nc(-c5ccncn5)cc(=O)n4C)CC3)cc2)CC1 [1.210, 2-{1-[4-(4-Acetyl-piperazin-1-yl)phenyl]piperidin-4-yloxy}-1-methyl-1H-[4,4′]bipyrimidinyl-6-one]"
17,41.6,"Cn1c(OCC2CCN(c3ccc(CN4CCCCC4)cc3)CC2)nc(-c2ccncn2)cc1=O [1.233, 1-Methyl-2-[1-(4-piperidin-1-ylmethyl-phenyl)piperidin-4-ylmethoxy]-1H-[4,4′] bipyrimidinyl-6-one]"
18,23.7,"CN1Cc2ccc(N3CCC(Oc4nc(-c5ccncn5)cc(=O)n4C)CC3)cc2C1 [1.226, 1-Methyl-2-[1-(2-methyl-2,3-dihydro-1H-isoindol-5-yl)piperidin-4-yloxy]-1H-[4,4′]bipyrimidinyl-6-one]"
19,955,"Cn1c(OC2CCN(Cc3ccccc3)CC2)nc(-c2ccncn2)cc1=O [1.504, 2-(1-Benzyl-piperidin-4-yloxy)-1-methyl-1H-[4,4′]bipyrimidinyl-6-one]"
20,17.9,"CN1CCN(c2ccc(N3CCC(Oc4nc(-c5ccncn5)cc(=O)n4C)CC3)cc2)CC1 [1.209, 1-Methyl-2-{1-[4-(4-methyl-piperazin-1-yl)phenyl]piperidin-4-yloxy}-1H-[4,4′]bipyrimidinyl-6-one]"
21,948,"CCC1CCCCC1Oc1nc(-c2ccncn2)cc(=O)n1C (stereo not drawn) [1.803, 2-(2-Ethyl-cyclohexyloxy)-1-methyl-1H-[4,4′]bipyrimidinyl-6-one]"
22,10.7,"Cn1c(OC2CCN(c3ccc(N4CCNCC4)cc3)CC2)nc(-c2ccncn2)cc1=O [1.208, 1-Methyl-2-[1-(4-piperazin-1-yl-phenyl)-piperidin-4-yloxy]-1H-[4,4′]bipyrimidinyl-6-one]"
23,29.8,"Cn1c(OC2CCN(c3cccnc3)CC2)nc(-c2ccncn2)cc1=O [1.224, 1-Methyl-2-(1-pyridin-3-yl-piperidin-4-yloxy)-1H-[4,4′]bipyrimidinyl-6-one]"
24,21.5,"CN1CCN(Cc2cccc(N3CCC(Oc4nc(-c5ccncn5)cc(=O)n4C)CC3)c2)CC1 [1.222, 1-Methyl-2-{1-[3-(4-methyl-piperazin-1-ylmethyl)phenyl]piperidin-4-yloxy}-1H-[4,4′] bipyrimidinyl-6-one]"
25,50.1,"Cn1c(OC2CCN(c3ccc(CN4CCCCC4)cc3)CC2)nc(-c2ccncc2)cc1=O [1.215, 3-Methyl-2-[1-(4-piperidin-1-ylmethyl-phenyl)piperidin-4-yloxy]-6-pyridin-4-yl-3H-pyrimidin-4-one]"
26,194,"Cc1ccc(S(=O)(=O)N2CCC(Oc3nc(-c4ccncn4)cc(=O)n3C)CC2)cc1 [1.111, 1-Methyl-2-[1-(toluene-4-sulfonyl)piperidin-4-yloxy]-1H-[4,4′] bipyrimidinyl-6-one]"
27,21.2,"CN(C)Cc1ccc(N2CCC(Oc3nc(-c4ccncn4)cc(=O)n3C)CC2)cc1 [1.220, 2-[1-(4-Dimethylaminomethyl-phenyl)piperidin-4-yloxy]-1-methyl-1H-[4,4′]bipyrimidinyl-6-one]"
